Results reported in patent US6989375B2, “Enhanced expression of transgenes” (priority 1996, dated 2006).

Columns and labels:
[1] = system: p53 protein in H1299 cells; assay: p53 immunocytochemical staining; assay type: cell-based, human; settings: 24 hrs after p53 gene transfer (MOI=5); prior CDDP exposure
Method: The infected cells were fixed 3.8% formalin at 12 and 24 hrs after transfection with Adv/CMV/p53 (MOI=5) with or without prior CDDP exposure and treated with 3% H2O2 in methanol for 5 minutes. The Vectastain kit (Vector Laboratories, Burlingana, Calif.) was used for the immunocytochemical staining. The primary antibody used was the mouse monoclonal anti-p53 antibody Pab 1801 (Oncogene Science, Manhasset, N.Y.). The secondary antibody was the biotinylated anti-mouse IgG antibody (Vector Laboratories). The avidin-biotin-peroxidase complex (ABC) kit was used to detect the antigen-antibody complex. The cells were counterstained with Harris Hematoxylin (Sigma, St. Louis, Mo.) and mounted with cover slips using Cytoseal 60.

[2] = system: subcutaneous H1299 tumors; assay: In vivo CDDP-induced enhancement of β-gal gene expression in subcutaneous tumors; set-up: species or system nude mice
Method: Subcutaneous (SC) tumor nodules were created by injecting 1×10^7 H1299 cells suspended in 100 μl of PBS into the dorsal flank SC tissue of nude mice (nu/nu, Charles River, Wilmington, Mass.) that had received 350 Rads of total body irradiation. Tumors, approximately 250 mm^3 in size, consistently formed within 3 to 4 weeks of tumor cell implantation. Intratumoral injections of Ad/CMV/β-gal (5×10^8 viral particles) were done at 0, 2, 4, and 6 days following an intraperitoneal injection of CDDP (5 μg/g body weight in 100 μl of PBS) or PBS only (n=4 per groups). The tumors were excised 48 hours after adenovirus injection, washed in cold PBS, embedded in tissue freezing medium (Fisher Scientific, Houston, Tex.) and snap-frozen by immersion in 2-methylbutane which was chilled over liquid nitrogen. Serial frozen sections (8μ, thick) of the tumor mass obtained at 2-mm intervals were fixed and stained with X-gal as previously described (Ponder et al., 1991) and then counterstained with nuclear fast red (PolyScientific, Bay Shore, N.Y.). Quantitative assessment of β-gal gene expression (blue cells) was determined by digital image analysis (Samba 4000, Immuno Software, Version 3.0; Image Products International, Inc., Chantilly, Va.) for each tumor section. In vivo β-gal gene transduction of tumor masses was calculated as the mean of the percentage of blue cells per surface area of representative sections. Tumor-bearing animals receiving intraperitoneal injection of PBS and subsequent intratumoral injection of Ad/CMV/β-gal at identical time points, served as controls. The magnitude of enhancement was calculated by dividing values from CDDP and Ad/CMV/β-gal treated tumors by values from Ad/CMV/β-gal control treated tumors.

[3] = system: primary human foreskin fibroblasts; settings: 16 to 20 hours exposure to high concentrations, followed immediately by transduction; cited from earlier work
H1299 cells = assay: Cell growth after 24-hour incubation with CDDP; assay type: cell-based, human
H460 cells = assay: Cell growth after 24-hour incubation with CDDP; assay type: cell-based, human
[4] = CDDP at 1 and 4 μg/ml for 24 hours, cells viable by trypan blue exclusion
[5] = CDDP concentrations lower than 0.25 μg/ml

N.N.[Cl][Pt][Cl] [CDDP, cis-dichlorodimminocisplatin]
p53 immunocytochemical staining [1]: almost all of the CDDP-treated cells stained positive
Percentage of positively stained cells in tumors ([2]; Ad/CMV/β-gal injected 2 days after CDDP 5 μg/g ip (CDDP) or PBS (Ad/CMV/β-gal control)): 46.0±4.3%
Percentage of positively stained cells in tumors ([2]; Ad/CMV/β-gal injected 4 days after CDDP 5 μg/g ip (CDDP) or PBS (Ad/CMV/β-gal control)): 70.2±11%
Percentage of positively stained cells in tumors ([2]; Ad/CMV/β-gal injected 6 days after CDDP 5 μg/g ip (CDDP) or PBS (Ad/CMV/β-gal control)): 23.4±5%
Change in β-gal gene expression ([2]; CDDP 5 μg/g ip and Ad/CMV/β-gal concurrently administered (day 0)): no change
Fold increase of positively stained cells over respective control ([2]; gene transfer 2 days after CDDP administration): 1.6 fold
Fold increase of positively stained cells over respective control ([2]; gene transfer 4 days after CDDP administration): 2.8 fold
Susceptibility to AAV transduction [3]: more susceptible to transduction
Cell growth, initial response (H1299 cells; [4]): significant depression of growth to complete inhibition of proliferation
Cell growth compared to control cell populations (H1299 cells; [5]): remained unchanged
Cell growth, initial response (H460 cells; [4]): significant depression of growth to complete inhibition of proliferation
Cell growth compared to control cell populations (H460 cells; [5]): remained unchanged
